# Assay: HPLC determination of degradation products in particles after SEDS processing
# Format: physicochemical
# Protocol: High-Perfomance Liquid Chromatography (HPLC)
# Identification and quantification of degradation products were determined using HPLC technique.
# The amount of degradation products was calculated from the chromatograms as area-%. Thus, 0.2% area-procent means that the amount of degradation products was 0.2% of the initial weight of the substance.
# Particles were prepared in a modified SEDS equipment (Bradford Particle Design Limited, UK) from a solution, containing substance(s).
# The solution and the antisolvent were introduced into a coaxial nozzle, which was located inside a pressure vessel. Under controlled pressure and temperature conditions, the antisolvent extracts the solvent from the solution droplets. The concentration of the solute in the droplets is thereby increased, leading to rapid particle formation. The particles were collected in a vessel, while the antisolvent and the extracted solvent emerged through a back pressure regulator.
# The nozzle used was a two component nozzle, with an opening of 0.2 mm in diameter. In the two component nozzle the supercritical fluid passes through the inner passage, while the solution passes through the outer passage.
SMILES,Degradation products [a %],degradation products (HPLC) [area %]
"COc1ccc2[n-]c([S+]([O-])Cc3ncc(C)c(OC)c3C)nc2c1.COc1ccc2[n-]c([S+]([O-])Cc3ncc(C)c(OC)c3C)nc2c1.[Mg+2] (stereo not shown) [Experiment 1-1a, Omeprazole magnesium]",0.5,0.5
"COc1ccc2[n-]c([S+]([O-])Cc3ncc(C)c(OC)c3C)nc2c1.COc1ccc2[n-]c([S+]([O-])Cc3ncc(C)c(OC)c3C)nc2c1.[Mg+2] (stereo not shown) [Experiment 1-1b, Omeprazole magnesium]",0.2,0.2
"COc1ccc2[n-]c([S+]([O-])Cc3ncc(C)c(OC)c3C)nc2c1.COc1ccc2[n-]c([S+]([O-])Cc3ncc(C)c(OC)c3C)nc2c1.[Mg+2] (stereo not shown) [Experiment 1-2b, Omeprazole magnesium]",0.2,0.2
"COc1ccc2[n-]c([S+]([O-])Cc3ncc(C)c(OC)c3C)nc2c1.COc1ccc2[n-]c([S+]([O-])Cc3ncc(C)c(OC)c3C)nc2c1.[Mg+2] (stereo not shown) [Experiment 1-3a, Omeprazole magnesium]",0.4,0.4
"COc1ccc2[n-]c([S+]([O-])Cc3ncc(C)c(OC)c3C)nc2c1.COc1ccc2[n-]c([S+]([O-])Cc3ncc(C)c(OC)c3C)nc2c1.[Mg+2] (stereo not shown) [Experiment 1-3b, Omeprazole magnesium]",0.2,0.2
"COc1ccc2[n-]c([S+]([O-])Cc3ncc(C)c(OC)c3C)nc2c1.COc1ccc2[n-]c([S+]([O-])Cc3ncc(C)c(OC)c3C)nc2c1.[Mg+2] (stereo not shown) [Experiment 1-4b, Omeprazole magnesium]",0.1,0.1
"COc1ccc2[n-]c([S@@+]([O-])Cc3ncc(C)c(OC)c3C)nc2c1.COc1ccc2[n-]c([S@@+]([O-])Cc3ncc(C)c(OC)c3C)nc2c1.[Mg+2] [Experiment 2-1a, (S)-omeprazole magnesium]",2.1,2.1
"COc1ccc2[n-]c([S@@+]([O-])Cc3ncc(C)c(OC)c3C)nc2c1.COc1ccc2[n-]c([S@@+]([O-])Cc3ncc(C)c(OC)c3C)nc2c1.[Mg+2] [Experiment 2-1b, (S)-omeprazole magnesium]",0.3,0.3

# From US6596315B1, “Method of producing drug particles” (AstraZeneca AB, priority 1998, dated 2003)
